The text below walks through data of patent US10414763B2 (CANCER RESEARCH TECHNOLOGY LIMITED, priority 2014, dated 2019).

Each structure is given as a SMILES string.

This experiment has as its target T1, full-length human PKCι (Homo sapiens, UniProt P41743).
T1 construct: Recombinant, full-length human PKCι expressed in Sf21 insect cells is also commercially available; purchased EMD Millipore; host or cells: Sf21 insect cells (baculovirus)
T1 sequence (P41743 1-596): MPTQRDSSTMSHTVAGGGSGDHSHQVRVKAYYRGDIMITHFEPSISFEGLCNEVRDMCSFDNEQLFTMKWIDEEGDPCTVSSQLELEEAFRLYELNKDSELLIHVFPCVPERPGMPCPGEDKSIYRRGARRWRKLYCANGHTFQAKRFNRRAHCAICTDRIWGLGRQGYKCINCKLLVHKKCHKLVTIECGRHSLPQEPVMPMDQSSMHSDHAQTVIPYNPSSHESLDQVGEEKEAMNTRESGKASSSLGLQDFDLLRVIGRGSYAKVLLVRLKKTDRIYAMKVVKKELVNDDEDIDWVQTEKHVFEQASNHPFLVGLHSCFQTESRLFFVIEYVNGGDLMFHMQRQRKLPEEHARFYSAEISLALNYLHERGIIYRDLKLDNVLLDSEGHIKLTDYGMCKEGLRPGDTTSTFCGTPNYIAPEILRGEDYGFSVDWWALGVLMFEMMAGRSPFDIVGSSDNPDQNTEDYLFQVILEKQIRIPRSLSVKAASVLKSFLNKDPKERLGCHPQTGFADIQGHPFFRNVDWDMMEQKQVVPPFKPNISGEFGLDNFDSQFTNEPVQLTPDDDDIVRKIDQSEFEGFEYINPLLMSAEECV
Kind of experiment: PKCι IC50 IMAP fluorescence polarisation assay, full-length enzyme, 150 μM ATP. The settings on record: read-out: IC50 in IMAP assay against full length PKCi at 150 μM ATP. In kind it is biochemical. In short, it runs like this: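 IMAP fluorescence polarisation kinase assay: 15 pM baculovirus-expressed human PKCiota with 100 nM FAM-pseudosubstrate peptide and 150 μM ATP, 1 h at 25 °C. IMAP detection reagent then 2 h at 25 °C before FP measurement. Inhibition referenced to no-compound and no-enzyme controls for IC50 fitting.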
A general note: Polarisation of emitted light reports the rotation of a fluorescent probe.
On to `FC(F)(F)c1cc2c(-c3nc(N4CCOC5CNCC54)c4c(C5CC5)cncc4n3)ccnc2[nH]1` (centres unmarked) [Example 155, 5-Cyclopropyl-4-(hexahydro-pyrrolo[3,4-b] [1,4]oxazin-4-yl)-2-(2-trifluoromethyl-1H-pyrrolo[2,3-b]pyridin-4-yl)-pyrido[3,4-d]pyrimidine], for which the IC50 was under 100 nM.
To `CC1(C)CNCCC1Nc1nc(-c2ccnc3[nH]c(-c4ccc(C(N)=O)cc4)cc23)nc2cncc(C3CC3)c12` (centres unmarked) [Example 156, 4-{4-[5-Cyclopropyl-4-(3,3-dimethyl-piperidin-4-ylamino)-pyrido[3,4-d]pyrimidin-2-yl]-1H-pyrrolo[2,3-b]pyridin-2-yl}-benzamide] belongs under 100 nM.
To `CC1(C)CNCC[C@H]1Nc1nc(-c2ccnc(Nc3nc(F)ccc3F)c2)nc2cncc(C3CC3)c12` [Example 157, {5-Cyclopropyl-2-[2-(3,6-difluoro-pyridin-2-ylamino)-pyridin-4-yl]-pyrido[3,4-d]pyrimidin-4-yl}-((R)-3,3-dimethyl-piperidin-4-yl)-amine] belongs 100 to 1000 nM; to `CC1(C)CNCC[C@@H]1Nc1nc(-c2ccnc(Nc3nc(F)ccc3F)c2)nc2cncc(C3CC3)c12` [Example 158, {5-Cyclopropyl-2-[2-(3,6-difluoro-pyridin-2-ylamino)-pyridin-4-yl]-pyrido[3,4-d]pyrimidin-4-yl}-((S)-3,3-dimethyl-piperidin-4-yl)-amine], under 100 nM; to `Fc1cc(F)c(Nc2cc(-c3nc(NC4CCCNCC4)c4c(C5CCC5)cncc4n3)ccn2)nc1F` (centres unmarked) [Example 159, Azepan-4-yl-{5-cyclobutyl-2-[2-(3,5,6-trifluoro-pyridin-2-ylamino)-pyridin-4-yl]-pyrido[3,4-d]pyrimidin-4-yl}-amine], under 100 nM.
Take `Fc1ccc(F)c(Nc2cc(-c3nc(NC4CCCNCC4)c4c(C5CCC5)cncc4n3)ccn2)n1` (centres unmarked) [Example 160, Azepan-4-yl-{5-cyclobutyl-2-[2-(3,6-difluoro-pyridin-2-ylamino)-pyridin-4-yl]-pyrido[3,4-d]pyrimidin-4-yl}-amine]: the IC50 was under 100 nM.
Under `CC1(C)CNCC[C@@H]1Nc1nc(-c2ccnc3[nH]c4ccccc4c23)nc2cncc(C3CCC3)c12` [Example 200] stands 100 to 1000 nM; under `Fc1cccc(Nc2cc(-c3nc(N4CCOC5CNCC54)c4c(C5CC5)cncc4n3)ccn2)n1` (centres unmarked) [Example 201, {4-[5-Cyclopropyl-4-(hexahydro-pyrrolo[3,4-b][1,4]oxazin-4-yl)-pyrido[3,4-d]pyrimidin-2-yl]-pyridin-2-yl}-(6-fluoro-pyridin-2-yl)-amine], under 100 nM; under `Fc1cc(F)c(Nc2cc(-c3nc(N4CCOC5CNCC54)c4c(C5CC5)cncc4n3)ccn2)nc1F` (centres unmarked) [Example 202, {4-[5-Cyclopropyl-4-(hexahydro-pyrrolo[3,4-b][1,4]oxazin-4-yl)-pyrido[3,4-d]pyrimidin-2-yl]-pyridin-2-yl}-(3,5,6-trifluoro-pyridin-2-yl)-amine], under 100 nM.
As for `Fc1ccc(F)c(Nc2cc(-c3nc(N4CCOC5CNCC54)c4c(C5CC5)cncc4n3)ccn2)n1` (centres unmarked) [Example 203, {4-[5-Cyclopropyl-4-(hexahydro-pyrrolo[3,4-b][1,4]oxazin-4-yl)-pyrido[3,4-d]pyrimidin-2-yl]-pyridin-2-yl}-(3,6-difluoro-pyridin-2-yl)-amine], the IC50 was 100 to 1000 nM.
Consider `CC(C)c1cc(C(C)C)c(S(=O)(=O)Oc2nc(-c3ccnc4[nH]c5ccccc5c34)nc3cncc(C4CCC4)c23)c(C(C)C)c1` [Example 204, 2,4,6-Triisopropyl-benzenesulfonic acid 5-cyclobutyl-2-(9H-pyrido[2,3-b]indol-4-yl)-pyrido[3,4-d]pyrimidin-4-yl ester], for which the IC50 was under 100 nM.
To `c1cc(-c2nc(N3CCNCC3)c3c(C4CC4)cncc3n2)cc(Nc2nc3n(n2)CCCC3)n1` [Example 205, [4-(5-Cyclopropyl-4-piperazin-1-yl-pyrido[3,4-d]pyrimidin-2-yl)-pyridin-2-yl]-(5,6,7,8-tetrahydro-[1,2,4]triazolo[1,5-a]pyridin-2-yl)-amine] belongs under 100 nM; to `c1ccc2c(c1)[nH]c1nccc(-c3nc(N4CCOC5CNCC54)c4c(C5CCC5)cncc4n3)c12` (centres unmarked) [Example 206, 4-[5-Cyclobutyl-4-(hexahydro-pyrrolo[3,4-b][1,4]oxazin-4-yl)-pyrido[3,4-d]pyrimidin-2-yl]-9H-pyrido[2,3-b]indole], under 100 nM; to `Fc1cc(F)c(Nc2cc(-c3nc(NC45CCNCC4C5)c4c(C5CCC5)cncc4n3)ccn2)nc1F` (centres unmarked) [Example 208, (3-Aza-bicyclo[4.1.0]hept-6-yl)-{5-cyclobutyl-2-[2-(3,5,6-trifluoro-pyridin-2-ylamino)-pyridin-4-yl]-pyrido[3,4-d]pyrimidin-4-yl}-amine], under 100 nM.
For `Fc1ccc(F)c(Nc2cc(-c3nc(NC45CCNCC4C5)c4c(C5CCC5)cncc4n3)ccn2)n1` (centres unmarked) [Example 209, (3-Aza-bicyclo[4.1.0]hept-6-yl)-{5-cyclobutyl-2-[2-(3,6-difluoro-pyridin-2-ylamino)-pyridin-4-yl]-pyrido[3,4-d]pyrimidin-4-yl}-amine], the IC50 was under 100 nM.
Under `CC1(C)CNCC[C@@H]1Nc1nc(-c2ccnc(Nc3ncccc3F)c2)nc2cncc(C3CCC3)c12` [Example 210, {5-Cyclobutyl-2-[2-(3-fluoro-pyridin-2-ylamino)-pyridin-4-yl]-pyrido[3,4-d]pyrimidin-4-yl}-((S)-3,3-dimethyl-piperidin-4-yl)-amine] stands under 100 nM; under `CC1(C)CNCC[C@@H]1Nc1nc(-c2ccnc(Nc3ncc(F)cc3F)c2)nc2cncc(C3CCC3)c12` [Example 211, {5-Cyclobutyl-2-[2-(3,5-difluoro-pyridin-2-ylamino)-pyridin-4-yl]-pyrido[3,4-d]pyrimidin-4-yl}-((S)-3,3-dimethyl-piperidin-4-yl)-amine], under 100 nM.
With `Cc1cc2c(-c3nc(N(C)[C@H]4CCNCC4(C)C)c4c(C5CC5)cncc4n3)ccnc2[nH]1` [Example 212, [5-Cyclopropyl-2-(2-methyl-1H-pyrrolo[2,3-b]pyridin-4-yl)-pyrido[3,4-d]pyrimidin-4-yl]-((S)-3,3-dimethyl-piperidin-4-yl)-methyl-amine], the IC50 was under 100 nM.
Regarding `CN(c1nc(-c2ccnc3[nH]c(C(C)(C)C)cc23)nc2cncc(C3CCC3)c12)C1CCNCC1` [Example 213, [2-(2-tert-Butyl-1H-pyrrolo[2,3-b]pyridin-4-yl)-5-cyclobutyl-pyrido[3,4-d]pyrimidin-4-yl]-methyl-piperidin-4-yl-amine], the IC50 was under 100 nM.
Under `NC1CCN(c2nc(-c3ccnc4[nH]c5ccccc5c34)nc3cncc(C4CCC4)c23)C1` (centres unmarked) [Example 214, 1-[5-Cyclobutyl-2-(9H-pyrido[2,3-b]indol-4-yl)-pyrido[3,4-d]pyrimidin-4-yl]-pyrrolidin-3-ylamine] stands under 100 nM.
Regarding `FC(F)(F)c1cncc2nc(-c3ccnc4[nH]c5ccccc5c34)nc(N3CCNCC3)c12` [Example 215, 4-(4-Piperazin-1-yl-5-trifluoromethyl-pyrido[3,4-d]pyrimidin-2-yl)-9H-pyrido[2,3-b]indole], the IC50 lay in the range of 100 to 1000 nM.
On to `FC(F)(F)c1cncc2nc(-c3ccnc4[nH]c5ccccc5c34)nc(N3CC[C@@H]4CNC[C@@H]43)c12` [Example 216, 4-((3R,6R)-4-Hexahydro-pyrrolo[3,4-b]pyrrol-1-yl-5-trifluoromethyl-pyrido[3,4-d]pyrimidin-2-yl)-9H-pyrido[2,3-b]indole], for which the IC50 lay within 100 to 1000 nM.
To `CC1(C)CNCC[C@@H]1Nc1nc(-c2ccnc3[nH]c4ccccc4c23)nc2cncc(C(F)(F)F)c12` [Example 217, ((S)-3,3-Dimethyl-piperidin-4-yl)-[2-(9H-pyrido[2,3-b]indol-4-yl)-5-trifluoromethyl-pyrido[3,4-d]pyrimidin-4-yl]-amine] belongs under 100 nM; to `N[C@H]1C[C@@H](Nc2nc(-c3ccnc4[nH]c5ccccc5c34)nc3cncc(C(F)(F)F)c23)C1` [Example 218, cis-N-[2-(9H-Pyrido[2,3-b]indol-4-yl)-5-trifluoromethyl-pyrido[3,4-d]pyrimidin-4-yl]-cyclobutane-1,3-diamine], 100 to 1000 nM.
Regarding `OC1CNCCC(Nc2nc(-c3ccnc4[nH]c5ccccc5c34)nc3cncc(C(F)(F)F)c23)C1` (centres unmarked) [Example 219, 5-[2-(9H-Pyrido[2,3-b]indol-4-yl)-5-trifluoromethyl-pyrido[3,4-d]pyrimidin-4-ylamino]-azepan-3-ol], the IC50 is under 100 nM.
To `CN(c1nc(-c2ccnc3[nH]c4ccccc4c23)nc2cncc(C(F)(F)F)c12)C1CC(N)C(O)C1` (centres unmarked) [Example 220, 2-Amino-4-{methyl-[2-(9H-pyrido[2,3-b]indol-4-yl)-5-trifluoromethyl-pyrido[3,4-d]pyrimidin-4-yl]-amino}-cyclopentanol] belongs under 100 nM.

For orientation: IC50 means the point on the concentration scale where inhibition reaches its midpoint.
